{
  "source": "paper PMC5761330",
  "about": "(ACS chemical biology, 2017)",
  "key": {"[1]": {"system": "CMV-Luc", "assay": "CMV-Luc counter-screen in HEK293 cells", "format": "cell-based", "conditions": "increasing concentrations"}, "[2]": {"target": "Pax5 (Homo sapiens, UniProt Q02548)", "sequence (Q02548 whole entry, species assumed)": "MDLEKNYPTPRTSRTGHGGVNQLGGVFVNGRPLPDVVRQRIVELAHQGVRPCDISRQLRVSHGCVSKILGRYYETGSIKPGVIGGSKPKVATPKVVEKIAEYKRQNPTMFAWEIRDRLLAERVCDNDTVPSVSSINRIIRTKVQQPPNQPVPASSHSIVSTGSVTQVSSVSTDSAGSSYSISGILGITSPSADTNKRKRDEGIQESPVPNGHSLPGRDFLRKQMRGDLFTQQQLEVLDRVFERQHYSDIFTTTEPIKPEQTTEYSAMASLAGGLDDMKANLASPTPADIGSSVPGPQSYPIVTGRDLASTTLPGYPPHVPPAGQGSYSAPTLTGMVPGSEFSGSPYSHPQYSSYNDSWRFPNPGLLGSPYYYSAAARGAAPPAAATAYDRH", "assay": "PRS4-Luc reporter activation by Pax5 in HEK293 cells", "format": "cell-based", "conditions": "dose response"}, "[3]": {"target": "Pax8 (Homo sapiens, UniProt Q06710)", "sequence (Q06710 whole entry, species assumed)": "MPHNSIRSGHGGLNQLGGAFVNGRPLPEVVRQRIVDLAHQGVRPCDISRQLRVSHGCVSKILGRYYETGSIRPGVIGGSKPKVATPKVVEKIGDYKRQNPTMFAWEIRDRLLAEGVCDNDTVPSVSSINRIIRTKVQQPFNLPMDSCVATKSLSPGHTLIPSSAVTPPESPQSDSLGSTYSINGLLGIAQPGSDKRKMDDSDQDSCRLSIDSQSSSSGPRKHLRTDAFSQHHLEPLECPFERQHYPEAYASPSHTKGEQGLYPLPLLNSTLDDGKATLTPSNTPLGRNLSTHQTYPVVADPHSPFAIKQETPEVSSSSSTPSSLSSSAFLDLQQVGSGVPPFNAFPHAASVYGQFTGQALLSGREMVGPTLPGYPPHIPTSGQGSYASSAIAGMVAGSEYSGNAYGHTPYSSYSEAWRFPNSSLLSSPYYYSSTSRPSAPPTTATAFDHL", "assay": "PRS4-Luc reporter activation by Pax8 in HEK293 cells", "format": "cell-based", "conditions": "dose response"}, "[4]": {"system": "BRE-Luc (P-Smad mediated transactivation)", "assay": "BMP dependent luciferase reporter", "format": "cell-based", "conditions": "HEK293 cells, in the presence of BMP4, increasing amounts"}, "[5]": {"target": "Pax2 (Mus musculus, UniProt P32114)", "sequence (P32114 1-391 isoform P32114-2)": "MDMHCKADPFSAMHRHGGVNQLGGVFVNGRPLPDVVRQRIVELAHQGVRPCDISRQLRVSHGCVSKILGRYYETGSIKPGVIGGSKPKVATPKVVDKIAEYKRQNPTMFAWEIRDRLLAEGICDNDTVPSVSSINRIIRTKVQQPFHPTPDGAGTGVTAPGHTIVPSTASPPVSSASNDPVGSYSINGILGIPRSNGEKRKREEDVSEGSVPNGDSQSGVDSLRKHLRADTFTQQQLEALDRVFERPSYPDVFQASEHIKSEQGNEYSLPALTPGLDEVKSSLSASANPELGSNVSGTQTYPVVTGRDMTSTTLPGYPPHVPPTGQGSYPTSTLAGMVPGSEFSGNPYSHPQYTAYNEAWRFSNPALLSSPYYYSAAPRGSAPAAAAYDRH", "assay": "PRS4-EGFP reporter, Western blot of EGFP", "format": "cell-based", "conditions": "PRS4-EGFP cells, increasing concentrations"}, "[6]": {"target": "recombinant Pax2 paired domain (amino acids 1–170) / PRS oligo (Mus musculus, UniProt P32114)", "sequence (P32114 1-170)": "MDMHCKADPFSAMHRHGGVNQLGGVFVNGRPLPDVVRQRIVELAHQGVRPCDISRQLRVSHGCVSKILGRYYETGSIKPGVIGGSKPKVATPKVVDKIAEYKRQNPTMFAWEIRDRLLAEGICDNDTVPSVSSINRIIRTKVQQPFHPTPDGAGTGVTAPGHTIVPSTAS", "assay": "Electrophoretic mobility shift assay", "format": "biochemical", "conditions": "EMSA"}, "[7]": {"system": "E11.5 kidney rudiments", "assay": "Embryonic kidney organ culture, branching morphogenesis", "design": "species or system mouse", "conditions": "48 h, highest dose"}, "[8]": {"system": "E11.5 lung rudiments", "assay": "Embryonic lung organ culture, branching morphogenesis", "design": "species or system mouse", "conditions": "48 h, increasing concentrations"}, "[9]": {"system": "kidney organ cultures", "assay": "Pax2 target gene expression in kidney organ cultures", "design": "species or system mouse", "conditions": "kidney organ culture, 48 h"}, "[10]": {"system": "RCC111, TOV112D and ES-2 cells", "assay": "Cell viability", "format": "cell-based", "conditions": "48 h, 12.5 and 25 µM, Pax2 positive cells"}, "[11]": {"system": "22Rv1, PC-3 and SK-OV-3 cells", "assay": "Cell viability", "format": "cell-based", "conditions": "48 h, 12.5 and 25 µM, Pax2 negative cells"}, "[12]": {"system": "RCC111, TOV112D and ES-2 cells", "assay": "Phospho-histone H3 Western blot, Pax2 positive cancer cell lines", "format": "cell-based", "conditions": "increasing amounts"}, "[13]": {"system": "22Rv1, PC-3 and SK-OV-3 cells", "assay": "Phospho-histone H3 Western blot, Pax2 negative cancer cell lines", "format": "cell-based", "conditions": "increasing amounts"}},
  "data": [
    {"molecule": "COc1ccccc1C(=O)Nc1ccc(C(=O)Nc2ccccc2C(=O)O)cc1", "note": "[EG1]", "values": [
      {"measurement": "Inhibition of CMV-Luc in the counter-screen", "setting": "[1]", "value": "no inhibitory effect"},
      {"measurement": "Inhibition of PRS4-Luc activation by Pax5", "setting": "[2]", "value": "able to inhibit"},
      {"measurement": "Inhibition of PRS4-Luc activation by Pax8", "setting": "[3]", "value": "able to inhibit"},
      {"measurement": "Effect on BRE-Luc reporter activity", "setting": "[4]", "value": "unaffected"},
      {"measurement": "Inhibition of Pax2 mediated expression of EGFP", "setting": "[5]", "value": "capable of inhibiting Pax2 mediated expression of EGFP"},
      {"measurement": "Inhibition of Pax2-DNA binding", "setting": "[6]; 10 µM", "value": "Significant inhibition"},
      {"measurement": "Inhibition of Pax2-DNA binding", "setting": "[6]; 100 µM", "value": "near complete inhibition"},
      {"measurement": "Inhibition of branching morphogenesis", "setting": "[7]", "value": "up to 75%"},
      {"measurement": "Effect on branching morphogenesis", "setting": "[8]", "value": "no change in branching morphogenesis"},
      {"measurement": "Cited1 and HNF4a expression, qRT-PCR", "setting": "[9]", "value": "clear reduction"},
      {"measurement": "Cited1 expression, whole mount in situ hybridization", "setting": "[9]", "value": "dramatic reduction in expression levels"},
      {"measurement": "FoxD1, Msx1 and Twist2 (stromal genes) expression, qRT-PCR", "setting": "[9]", "value": "increased levels"},
      {"measurement": "Cell viability", "setting": "[10]", "value": "significant decrease in cell viability"},
      {"measurement": "Cell viability", "setting": "[11]", "value": "none of the Pax2 negative cells were affected"},
      {"measurement": "Levels of phospho–histone H3 (P–H3)", "setting": "[12]", "value": "decreased levels of P–H3"},
      {"measurement": "Levels of phospho–histone H3 (P–H3)", "setting": "[13]", "value": "unchanged"}
    ]}
  ]
}
